Assay in all cases: Minimal inhibitory concentration test (MIC-Test) of lincomycin, serial dilution in liquid culture
Experiment [1] deals with DM1933_ΔlmrB::EcoRV/pVWEx1. Format: cell-based, Corynebacterium glutamicum. The note with it: 20 h. The protocol: For this purpose a first well of a microliter plate was filled with 360 μl of BHI medium supplemented with 0.3 mM IPTG and 250 μg/ml lincomycin-hydrochloride. A volume of 180 μl was removed and placed into a second well previously filled with 180 μl BHI medium supplemented with 0.3 mM IPTG. Thus a second well containing BHI medium supplemented with 0.3 mM IPTG and 125 μg/ml lincomycin-hydrochloride was prepared. From said second well 180 ∞l were removed and placed into a third well previously filled with 180 μl BHI medium supplemented with 0.3 mM IPTG. These dilution steps were repeated several times to cover the concentration range mentioned above. Thus wells containing 180 μl of the respective test medium were obtained. […]
A preculture of the strain to be tested was made in BHI medium (as described under cultivation) supplemented with 250 μg/ml kanamycin in case of plasmid containing strains). […] After 20 h the optical densities were measured. […]
(§1) The MIC's of lincomycin for strains ATCC13032/pVWEx1; ATCC13032/pVWEx1_lmrB^ATCC14067; DM1933_ΔlmrB::EcoRV/pVWEx1 and DM1933_ΔlmrB::EcoRV/pVWEx1_lmrB^ATCC14067 constructed in example 8 were determined as described in materials and methods.
(§2) The MIC's of lincomycin for strains DM1933_ΔlmrB::EcoRV/pVWEx1 and DM1933_ΔlmrB::EcoRV/pVWEx1_lmrB^DM1547 constructed in examples 8 and 11 were determined as described in materials and methods.

A further experiment has as its system ATCC13032/pVWEx1. Type of experiment: cell-based. The settings on record: Corynebacterium glutamicum; strain ATCC13032/pVWEx1; as lincomycin-hydrochloride; BHI medium with 0.3 mM IPTG, 20 h, 33° C. The protocol:
(§3) For this purpose a first well of a microliter plate was filled with 360 μl of BHI medium supplemented with 0.3 mM IPTG and 250 μg/ml lincomycin-hydrochloride. A volume of 180 μl was removed and placed into a second well previously filled with 180 μl BHI medium supplemented with 0.3 mM IPTG. Thus a second well containing BHI medium supplemented with 0.3 mM IPTG and 125 μg/ml lincomycin-hydrochloride was prepared. From said second well 180 ∞l were removed and placed into a third well previously filled with 180 μl BHI medium supplemented with 0.3 mM IPTG. These dilution steps were repeated several times to cover the concentration range mentioned above. Thus wells containing 180 μl of the respective test medium were obtained. A control medium without lincomycin-hydrochloride was included in the test procedure.
(§4) A preculture of the strain to be tested was made in BHI medium (as described under cultivation) supplemented with 250 μg/ml kanamycin in case of plasmid containing strains). The preculture was centrifuged and the cell pellet resuspended in 0.9% (w/v) NaCl solution to give an OD660 of 1.0. A volume of 20 μl of the suspension was used to inoculate the test medium contained in the wells. The micro titer plate was incubated at 300 rpm and 33° C. in an Infors HT Multitron standard incubator shaker from Infors GmbH (Bottmingen, Switzerland). After 20 h the optical densities were measured. The test medium having the lowest concentration of lincomycin-hydrochloride preventing growth of the culture is given as MIC.
as §1

The subject of experiment [2] is DM1933_ΔlmrB::EcoRV/pVWEx1_lmrB^ATCC14067. Type of experiment: cell-based. The settings on record: Corynebacterium glutamicum, ATCC14067, 20 h. How it is done:
as §3, §4, §1

For experiment [3], the system named is ATCC13032/pVWEx1_lmrB^ATCC14067. Type of experiment: cell-based. The settings on record: Corynebacterium glutamicum, 20 h. The protocol:
as §3, §4, §1

Experiment [4] relates to DM1933_ΔlmrB::EcoRV/pVWEx1_lmrB^DM1547. Format: cell-based. The settings on record: Corynebacterium glutamicum, 20 h. How it is done:
as §3
A preculture of the strain to be tested was made in BHI medium (as described under cultivation) supplemented with 250 μg/ml kanamycin in case of plasmid containing strains). The preculture was centrifuged and the cell pellet resuspended in 0.9% (w/v) NaCl solution to give an OD660 of 1.0. […] After 20 h the optical densities were measured. […]
as §2

≈ marks a conversion by molar mass, not a printed value.

As usually defined, the MIC is the lowest concentration that inhibits growth of the organism.

As for `CCC[C@@H]1C[C@@H](C(=O)N[C@@H]([C@H]2O[C@H](SC)[C@H](O)[C@@H](O)[C@H]2O)[C@@H](C)O)N(C)C1` [lincomycin, Lincomycin], the minimum inhibitory concentration (MIC) was 7.8 µg/mL (≈ 19.2 µM) in experiment [1] (Corynebacterium glutamicum); 7.8 µg/mL (≈ 19.2 µM) in experiment [1] (strain DM1933_DlmrB/pVWEx1 (Table 25), as lincomycin-hydrochloride, BHI medium with 0.3 mM IPTG, 33° C.); 15.6 µg/mL (≈ 38.4 µM) with ATCC13032/pVWEx1; 62.5 µg/mL (≈ 154 µM) in experiment [2]; 125 µg/mL (≈ 307 µM) in experiment [3]; 62.5 µg/mL (≈ 154 µM) in experiment [4].

Values taken from patent publication US20190106721A1, “Method for the fermentative production of L-amino acids” (priority 2017, published 2019).
